From US10961231B2, “NTCP inhibitors” (National Institute of Biological Sciences, Beijing, priority 2018, dated 2021)
pIC50: −log10 of the molar value.

Target: T1, NTCP (Homo sapiens, UniProt Q14973)
T1 sequence (Q14973 1-349): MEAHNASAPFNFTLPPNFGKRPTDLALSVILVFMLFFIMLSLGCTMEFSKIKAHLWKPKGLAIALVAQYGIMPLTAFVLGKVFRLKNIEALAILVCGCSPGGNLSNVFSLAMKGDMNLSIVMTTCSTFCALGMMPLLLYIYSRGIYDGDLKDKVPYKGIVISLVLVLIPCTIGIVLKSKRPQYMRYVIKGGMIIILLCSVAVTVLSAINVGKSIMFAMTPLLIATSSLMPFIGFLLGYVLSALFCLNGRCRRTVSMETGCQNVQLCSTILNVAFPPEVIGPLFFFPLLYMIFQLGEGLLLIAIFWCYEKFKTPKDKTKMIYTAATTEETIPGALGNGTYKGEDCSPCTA
Assay: [3H]-TCA uptake assay (NTCP inhibition)
Assay type: cell-based
Conditions: IC50, given as a range, marked * (asterisk not explained)
Procedure: [^3H]-TCA uptake assay. PTH and HepG2-NTCP cells were cultured in PMM for 24 hours to induce NTCP expression. After treated by DMSO or test compounds for 2 hours, the cells were then incubated with 1 μM [^3H]-taurocholate acid dissolved in Na^+ Ringer's buffer (the concentration of Na was 145 mM) for 15 minutes at 37° C. Subsequently, the cells were washed once in phosphate-buffered saline (PBS) and lysed in 50 μL 1% TritonX-100 in H2O for 5 minutes at room temperature. The lysate were totally transferred into a liquid scintillation 96 well plate and mixed with 200 μL liquid scintillation cocktail (Ultima Gold XR, PerkinElmer). Liquid scintillation counting was performed on a PerkinElmer 1450 LSC liquid scintillation counter.

Q: `CCC1NC(=O)C(C2OC(Sc3cccc(OCCN(C)C)c3)CC2C)N(C)C(=O)C(C(C)C)N(C)C(=O)C(CC(C)C)N(C)C(=O)C(CC(C)C)N(C)C(=O)C(C)NC(=O)C(C)NC(=O)C(CC(C)C)N(C)C(=O)C(C(C)C)NC(=O)C(CC(C)C)N(C)C(=O)CN(C)C1=O` [Compound 14A, [2-((2R,3R)-5-(3-(2-(dimethylamino)ethoxy)phenylthio)-3-methyltetrahydrofuran-2-yl)-2-(methylamino)acetic acid]^1-cyclosporin A] was tested. Which pIC50 did it give?
A: 4.00 to 6.00

Q: With `CCC1NC(=O)C(C2OC(Oc3cccc(OCCN(C)C)c3)CC2C)N(C)C(=O)C(C(C)C)N(C)C(=O)C(CC(C)C)N(C)C(=O)C(CC(C)C)N(C)C(=O)C(C)NC(=O)C(C)NC(=O)C(CC(C)C)N(C)C(=O)C(C(C)C)NC(=O)C(CC(C)C)N(C)C(=O)CN(C)C1=O` (centres unmarked) [Compound 14A-o] as the compound, how does the pIC50 read?
A: 4.00 to 6.00

Q: How did the pIC50 turn out when `CCC1NC(=O)C(C2OC(Oc3cccc(OCc4ccccc4F)c3)CC2C)N(C)C(=O)C(C(C)C)N(C)C(=O)C(CC(C)C)N(C)C(=O)C(CC(C)C)N(C)C(=O)C(C)NC(=O)C(C)NC(=O)C(CC(C)C)N(C)C(=O)C(C(C)C)NC(=O)C(CC(C)C)N(C)C(=O)CN(C)C1=O` (centres unmarked) [Compound 19A-o] was run?
A: 4.00 to 6.00

Q: With `CCC1NC(=O)C(C2OC(Oc3cccc(OCc4cccc(F)c4)c3)CC2C)N(C)C(=O)C(C(C)C)N(C)C(=O)C(CC(C)C)N(C)C(=O)C(CC(C)C)N(C)C(=O)C(C)NC(=O)C(C)NC(=O)C(CC(C)C)N(C)C(=O)C(C(C)C)NC(=O)C(CC(C)C)N(C)C(=O)CN(C)C1=O` (centres unmarked) [Compound 20A-o] as the compound, how does the pIC50 read?
A: 4.00 to 6.00

Q: With `CCC1NC(=O)C(C2OC(Oc3cccc(OCc4ccc(F)cc4)c3)CC2C)N(C)C(=O)C(C(C)C)N(C)C(=O)C(CC(C)C)N(C)C(=O)C(CC(C)C)N(C)C(=O)C(C)NC(=O)C(C)NC(=O)C(CC(C)C)N(C)C(=O)C(C(C)C)NC(=O)C(CC(C)C)N(C)C(=O)CN(C)C1=O` (centres unmarked) [Compound 21A-o] as the compound, how does the pIC50 read?
A: 4.00 to 6.00

Same assay, conditions: IC50, given as a range; assay not given

Q: `CCC1NC(=O)C(C2OC(Sc3cccc(OCCC4CCCN4C)c3)CC2C)N(C)C(=O)C(C(C)C)N(C)C(=O)C(CC(C)C)N(C)C(=O)C(CC(C)C)N(C)C(=O)C(C)NC(=O)C(C)NC(=O)C(CC(C)C)N(C)C(=O)C(C(C)C)NC(=O)C(CC(C)C)N(C)C(=O)CN(C)C1=O` [Compound 15A, [2-((2R,3R)-3-methyl-5-(3-(2-(1-methylpyrrolidin-2-yl)ethoxy)phenylthio)tetrahydrofuran-2-yl)-2-(methylamino)acetic acid]^1-cyclosporin A] was tested. Which pIC50 did it give?
A: 5.00 to 6.00

Same assay, conditions: given as a range, marked * (asterisk not explained)

Q: With `CCC1NC(=O)C(C2OC(Oc3cccc(OCc4ccn(C)c(=O)c4)c3)CC2C)N(C)C(=O)C(C(C)C)N(C)C(=O)C(CC(C)C)N(C)C(=O)C(CC(C)C)N(C)C(=O)C(C)NC(=O)C(C)NC(=O)C(CC(C)C)N(C)C(=O)C(C(C)C)NC(=O)C(CC(C)C)N(C)C(=O)CN(C)C1=O` (centres unmarked) [Compound 16A-o] as the compound, how does the pIC50 read?
A: 4.00 to 6.00

Q: `CCC1NC(=O)C(C2OC(Oc3cccc(OCc4ccc(-n5cccn5)cc4)c3)CC2C)N(C)C(=O)C(C(C)C)N(C)C(=O)C(CC(C)C)N(C)C(=O)C(CC(C)C)N(C)C(=O)C(C)NC(=O)C(C)NC(=O)C(CC(C)C)N(C)C(=O)C(C(C)C)NC(=O)C(CC(C)C)N(C)C(=O)CN(C)C1=O` (centres unmarked) [Compound 17A-o] was tested. Which pIC50 did it give?
A: 4.00 to 6.00

Q: `CCC1NC(=O)C(C2OC(Oc3cccc(OCc4ccc5c(c4)OCO5)c3)CC2C)N(C)C(=O)C(C(C)C)N(C)C(=O)C(CC(C)C)N(C)C(=O)C(CC(C)C)N(C)C(=O)C(C)NC(=O)C(C)NC(=O)C(CC(C)C)N(C)C(=O)C(C(C)C)NC(=O)C(CC(C)C)N(C)C(=O)CN(C)C1=O` (centres unmarked) [Compound 18A-o] was tested. Which pIC50 did it give?
A: 4.00 to 6.00

Q: With `CCC1NC(=O)C(C2OC(Oc3cccc(OCc4ccc(F)c(Cl)c4)c3)CC2C)N(C)C(=O)C(C(C)C)N(C)C(=O)C(CC(C)C)N(C)C(=O)C(CC(C)C)N(C)C(=O)C(C)NC(=O)C(C)NC(=O)C(CC(C)C)N(C)C(=O)C(C(C)C)NC(=O)C(CC(C)C)N(C)C(=O)CN(C)C1=O` (centres unmarked) [Compound 22A-o] as the compound, how does the pIC50 read?
A: 4.00 to 6.00

Q: `CCC1NC(=O)C(C2OC(Oc3cccc(OCc4ccc(F)cc4Cl)c3)CC2C)N(C)C(=O)C(C(C)C)N(C)C(=O)C(CC(C)C)N(C)C(=O)C(CC(C)C)N(C)C(=O)C(C)NC(=O)C(C)NC(=O)C(CC(C)C)N(C)C(=O)C(C(C)C)NC(=O)C(CC(C)C)N(C)C(=O)CN(C)C1=O` (centres unmarked) [Compound 23A-o] was tested. Which pIC50 did it give?
A: 4.00 to 6.00

Same assay, conditions: given as a range; assay not given

Q: `CCC1NC(=O)C(C2OC(Sc3cccc(OCc4ccn(C)c(=O)c4)c3)CC2C)N(C)C(=O)C(C(C)C)N(C)C(=O)C(CC(C)C)N(C)C(=O)C(CC(C)C)N(C)C(=O)C(C)NC(=O)C(C)NC(=O)C(CC(C)C)N(C)C(=O)C(C(C)C)NC(=O)C(CC(C)C)N(C)C(=O)CN(C)C1=O` [Compound 16A, [2-((2R,3R)-3-methyl-5-(3-((1-methyl-2-oxo-1,2-dihydropyridin-4-yl)methoxy)phenylthio)tetrahydrofuran-2-yl)-2-(methylamino)acetic acid]^1-cyclosporin A] was tested. Which pIC50 did it give?
A: 5.00 to 6.00

Q: For `CCC1NC(=O)C(C2OC(Sc3cccc(OCc4ccc5c(c4)OCO5)c3)CC2C)N(C)C(=O)C(C(C)C)N(C)C(=O)C(CC(C)C)N(C)C(=O)C(CC(C)C)N(C)C(=O)C(C)NC(=O)C(C)NC(=O)C(CC(C)C)N(C)C(=O)C(C(C)C)NC(=O)C(CC(C)C)N(C)C(=O)CN(C)C1=O` [Compound 18A, [2-((2R,3R)-5-(3-(benzo[d][1,3]dioxol-5-ylmethoxy)phenylthio)-3-methyltetrahydrofuran-2-yl)-2-(methylamino)acetic acid]^1-cyclosporin A], which IC50 is on record?
A: 1 to 1000 nM

Q: Which IC50 does the source give for `CCC1NC(=O)C(C2OC(Sc3cccc(OCc4ccccc4F)c3)CC2C)N(C)C(=O)C(C(C)C)N(C)C(=O)C(CC(C)C)N(C)C(=O)C(CC(C)C)N(C)C(=O)C(C)NC(=O)C(C)NC(=O)C(CC(C)C)N(C)C(=O)C(C(C)C)NC(=O)C(CC(C)C)N(C)C(=O)CN(C)C1=O` [Compound 19A, [2-((2R,3R)-5-(3-(2-fluorobenzyloxy)phenylthio)-3-methyltetrahydrofuran-2-yl)-2-(methylamino)acetic acid]^1-cyclosporin A] here?
A: 1 to 1000 nM

Q: `CCC1NC(=O)C(C2OC(Sc3cccc(OCc4cccc(F)c4)c3)CC2C)N(C)C(=O)C(C(C)C)N(C)C(=O)C(CC(C)C)N(C)C(=O)C(CC(C)C)N(C)C(=O)C(C)NC(=O)C(C)NC(=O)C(CC(C)C)N(C)C(=O)C(C(C)C)NC(=O)C(CC(C)C)N(C)C(=O)CN(C)C1=O` [Compound 20A, [2-((2R,3R)-5-(3-(3-fluorobenzyloxy)phenylthio)-3-methyltetrahydrofuran-2-yl)-2-(methylamino)acetic acid]^1-cyclosporin A] was tested. Which IC50 did it give?
A: 1 to 1000 nM

Q: Which IC50 does the source give for `CCC1NC(=O)C(C2OC(Sc3cccc(OCc4ccc(F)cc4)c3)CC2C)N(C)C(=O)C(C(C)C)N(C)C(=O)C(CC(C)C)N(C)C(=O)C(CC(C)C)N(C)C(=O)C(C)NC(=O)C(C)NC(=O)C(CC(C)C)N(C)C(=O)C(C(C)C)NC(=O)C(CC(C)C)N(C)C(=O)CN(C)C1=O` [Compound 21A, [2-((2R,3R)-5-(3-(4-fluorobenzyloxy)phenylthio)-3-methyltetrahydrofuran-2-yl)-2-(methylamino)acetic acid]^1-cyclosporin A] here?
A: 1 to 1000 nM

Q: `CCC1NC(=O)C(C2OC(Sc3cccc(OCc4ccc(F)c(Cl)c4)c3)CC2C)N(C)C(=O)C(C(C)C)N(C)C(=O)C(CC(C)C)N(C)C(=O)C(CC(C)C)N(C)C(=O)C(C)NC(=O)C(C)NC(=O)C(CC(C)C)N(C)C(=O)C(C(C)C)NC(=O)C(CC(C)C)N(C)C(=O)CN(C)C1=O` [Compound 22A, [2-((2R,3R)-5-(3-(3-chloro-4-fluorobenzyloxy)phenylthio)-3-methyltetrahydrofuran-2-yl)-2-(methylamino)acetic acid]^1-cyclosporin A] was tested. Which IC50 did it give?
A: 1 to 1000 nM

Q: For `CCC1NC(=O)C(C2OC(Sc3cccc(OCc4ccc(F)cc4C)c3)CC2C)N(C)C(=O)C(C(C)C)N(C)C(=O)C(CC(C)C)N(C)C(=O)C(CC(C)C)N(C)C(=O)C(C)NC(=O)C(C)NC(=O)C(CC(C)C)N(C)C(=O)C(C(C)C)NC(=O)C(CC(C)C)N(C)C(=O)CN(C)C1=O` [Compound 24A, [2-((2R,3R)-5-(3-(4-fluoro-2-methylbenzyloxy)phenylthio)-3-methyltetrahydrofuran-2-yl)-2-(methylamino)acetic acid]^1-cyclosporin A], which IC50 is on record?
A: 1 to 1000 nM

Same assay, conditions: given as a range; assay not given; read-out: IC50

Q: `CC[C@@H]1NC(=O)[C@H]([C@@H]2OC(Sc3cccc(OCc4ccc(-n5cccn5)cc4)c3)C[C@H]2C)N(C)C(=O)[C@H](C(C)C)N(C)C(=O)[C@H](CC(C)C)N(C)C(=O)[C@H](CC(C)C)N(C)C(=O)[C@@H](C)NC(=O)[C@H](C)NC(=O)[C@H](CC(C)C)N(C)C(=O)[C@H](C(C)C)NC(=O)[C@H](CC(C)C)N(C)C(=O)CN(C)C1=O` (stereo partly drawn) [Compound 17A, [2-((2R,3R)-5-(3-(4-(1H-pyrazol-1-yl)benzyloxy)phenylthio)-3-methyltetrahydrofuran-2-yl)-2-(methylamino)acetic acid]^1-cyclosporin A] was tested. Which pIC50 did it give?
A: 6.00 to 9.00

Q: How did the pIC50 turn out when `CC[C@@H]1NC(=O)[C@H]([C@@H]2OC(Sc3cccc(OCc4ccc(F)cc4Cl)c3)C[C@H]2C)N(C)C(=O)[C@H](C(C)C)N(C)C(=O)[C@H](CC(C)C)N(C)C(=O)[C@H](CC(C)C)N(C)C(=O)[C@@H](C)NC(=O)[C@H](C)NC(=O)[C@H](CC(C)C)N(C)C(=O)[C@H](C(C)C)NC(=O)[C@H](CC(C)C)N(C)C(=O)CN(C)C1=O` (stereo partly drawn) [Compound 23A, [2-((2R,3R)-5-(3-(2-chloro-4-fluorobenzyloxy)phenylthio)-3-methyltetrahydrofuran-2-yl)-2-(methylamino)acetic acid]^1-cyclosporin A] was run?
A: 6.00 to 9.00
